Series [1] concerns primarily cultured chick telencephalon nerve cells. Particulars: Neuroscience Letters, vol. 139, 205-208 (1992); result in words; cited from earlier work.
Series [2] relates to primarily cultured nerve cells of chick telencephalon. In words: Inhibitory activity to kainic acid toxicity, primarily cultured nerve cells of chick telencephalon. It counts as cell-based. The procedure:
(§1) The inhibitory activities to kainic acid toxicity of the substance PF1191 on primarily cultured nerve cells of chick telencephalon and rat hippocampus were examined. The test with the use of the primarily cultured nerve cells of chick telencephalon was carried out in accordance with the method reported in Neuroscience Letters, vol. 139, 205-208 […], while the test with the use of the primarily cultured nerve cells of rat hippocampus was carried out in accordance with the method reported in Brain Research, 126(1977) 397-425.
(§2) The molar concentration at which the cytotoxicity caused by the addition of 500 μM of kainic acid to the cultured cells was inhibited at a ratio of 50% was expressed in EC50 (effective concentration-fifty) in Table 1 below.

In series [3] the test system is primarily cultured nerve cells of rat hippocampus. In words: Inhibitory activity to kainic acid toxicity, primarily cultured nerve cells of rat hippocampus. The class given is cell-based. The protocol:
as §1, §2

pEC50: −log10 of the molar value. “Also recorded” adds a separate entry of the source.

As to `N#Cc1cc2[nH]c(=O)c(=O)[nH]c2cc1[N+](=O)[O-]` [CNQX, 6-cyano-7-nitroquinoxaline-2,3-dione], in series [1], the “inhibition of kainic acid toxicity by non-NMDA receptor antagonists” value (“inhibition … by non-NMDA receptor antagonists” for short) was “inhibited”.
As to `O=c1[nH]c2cc([N+](=O)[O-])c([N+](=O)[O-])cc2[nH]c1=O` [DNQX, 6,7-dinitroquinoxaline-2,3-dione], in series [1], the “inhibition … by non-NMDA receptor antagonists” value is given as “inhibited”.
Take `NS(=O)(=O)c1cccc2c1c([N+](=O)[O-])cc1[nH]c(=O)c(=O)[nH]c12` [NBQX, 6-nitro-7-sulfamoylbenzo[f]quinoxaline-2,3-dione]: the “inhibition … by non-NMDA receptor antagonists” value in series [1] was “inhibited”.
What is called pEC50 is −log10 of the EC50, conventionally taken in molar units. In the case of `NC(C(=O)O)C(O)C1(C(=O)O)CCC(CC(NC(=O)c2cc(Cl)c(O)c(Cl)c2)C(=O)O)N1` (centres unmarked) [Substance PF1191], the pEC50 in series [2] (Gallus gallus, chick telencephalon nerve cells + kainic acid (500 μM), read-out: 50% Effective conc. (EC50), inhibitory activity to kainic acid toxicity) was 5.82; in series [3] (rat hippocampus nerve cells + kainic acid (500 μM), read-out: 50% Effective conc. (EC50), inhibitory activity to kainic acid toxicity), 6.35. Moreover, the “inhibitory activity to kainic acid toxicity in comparison with DNQX” value is “stronger inhibitory activity to kainic acid toxicity than that of DNQX; also recorded: stronger inhibitory activity to kainic acid toxicity in comparison with the known substance DNQX” in series [2] (chick telencephalon nerve cells, kainic acid 500 μM, result in words) and “stronger inhibitory activity to kainic acid toxicity in comparison with the known substance DNQX” in series [3] (rat hippocampus nerve cells, kainic acid 500 μM, result in words).
`C=C(C)[C@H]1CN[C@H](C(=O)O)[C@H]1CC(=O)O` [kainic acid]: the “toxicity to primarily cultured chick telencephalon nerve cells” value in series [1] was “toxic”.

Values taken from US6171829A, “Physiologically active substance PF1191 and process for producing the same” (Meiji Seika Kaisha, Ltd., priority 1997, dated 2001).
